Test results from patent US20040006103A1, “Use of chloroquine, hydroxychloroquine and 4 amino-quinolinic derivatives to obtain a drug for the anti retroviral therapy, active towards HIV sensitive strains and towards HIV strains which are resistant to both nucleosidic and non-nucleosidic reverse transcriptase inhibitors and to proteases …” (VALPHARMA S.A., priority 2002, published 2004).
Read-outs that look alike come from different tables or passages of the source.

What was measured:
[1] = tested on: HIV-1 clinical isolated, characterised by mutations in the RT gene inducing geno-phenotypic resistance to 3TC; assay: p24 production susceptibility test (ACTG protocol), Table 3; format: cell-based; settings: for EC50: Human immunodeficiency virus 1, PBMC, read-out: E.C.50 CQ; for S.I. CQ / Fen. CQ (fold): PBMC; for S.I. CQ: I.C.50/E.C.50; for Fen. CQ (fold): ratio to HIV-IIIB
Description: (§1) For the phenotype of the nucleosidic, non-nucleosidic and proteases inhibitors was utilised a method which consider the use of human PBMC and the protocol standardised by the AIDS Clinical Trials Group, after verifying the genotype by sequence analysis.
(§2) In order to assay in vitro the susceptibility to chloroquine and hydroxychloroquine of the viral strains, it was used the protocol of the ACTG which is characterised by the measure, of the production of antigen p24 in strongly infected cells.
(§3) The susceptibility of the viral strains to chemotherapics was determined in cell cultures, prepared in 96 wells microplates, using, for the infection, 0.1 MOI.
(§4) The supernatant of the infected cultures (either in absence or in presence of different concentrations of chemotherapic) were tested for the production of p24 after 7 days, using an ELISA test which is commercially available.
At the same time non-infected cells were incubated with concentrations of chloroquine and hydroxychloroquine ranging from 0 to 50 uM to evaluate the toxicity of the compound.
(§5) After 4 day from the infection, half the cellular medium was replaced with a medium containing the corresponding dilution of chloroquine and hydroxychloroquine. The percentage of inhibition of the HIV replication, induced by chloroquine and hydroxychloroquine, was determined, after 7 day from the infection, comparing the levels of p24 of this cultures and that of the control, infected and not treated with chloroquine and hydroxychloroquine.
(§6) Therefore, the E.C.50 of chloroquine and hydroxychloroquine expresses the concentration of chemotherapic that inhibits the 50% of production of p24 and the values were calculated using linear and non linear regression analysis (the significativity for the non linear regression was R^2>0.95).
(§7) In the same experimental conditions and in the same day, but with similar concentrations of chloroquine and hydroxychloroquine, it was evaluated the vitality of the infect cell cultures, and this was expressed as I.C.50.
(§8) I.C.50 (Inhibitory Concentration) indicates the concentration of the chemotherapic agent inhibiting the vitality of the cell cultures at a rate of 50%, when there is not infection.

[2] = tested on: viruses resistant to both reverse transcriptase and protease inhibitors; assay: p24 production susceptibility test, summary for resistant viruses; format: cell-based, HIV-1; settings: Human immunodeficiency virus 1, range
Protocol: as §2, §3
The supernatant of the infected cultures (either in absence or in presence of different concentrations of chemotherapic) were tested for the production of p24 after 7 days, using an ELISA test which is commercially available. […]
as §5, §6

[3] = tested on: HIV-1 clinical isolated, characterised by mutations in the RT gene inducing geno-phenotypic resistance to ABC; assay: p24 production susceptibility test (ACTG protocol), Table 5; format: cell-based; settings: for EC50: Human immunodeficiency virus 1, PBMC, read-out: E.C.50 CQ; for S.I. CQ / Fen. CQ (fold): PBMC; for S.I. CQ: I.C.50/E.C.50; for Fen. CQ (fold): ratio to HIV-IIIB
Description: as §1, §2, §3, §4
(§9) The concentrations of chloroquine and hydroxychloroquine tested ranged from 0.5 to 15 uM. At the same time non-infected cells were incubated with concentrations of chloroquine and hydroxychloroquine ranging from 0 to 50 uM to evaluate the toxicity of the compound.
as §5, §6, §7, §8

[4] = tested on: HIV clinical isolated, characterised by mutations in the RT gene inducing geno-phenotypic resistance to AZT; assay: p24 production susceptibility test (ACTG protocol), Table 1; format: cell-based, HIV-1; settings: for EC50: Human immunodeficiency virus 1, PBMC; for S.I. CQ: I.C.50/E.C.50; for CQ (fold): ratio to HIV-IIIB
Description: as §1, §2, §3, §4, §9, §5, §6, §7, §8

[5] = tested on: HIV-1 clinical isolated, characterised by mutations on the protease gene inducing geno-phenotypic resistance to NFV; assay: p24 production susceptibility test (ACTG protocol), Table 10, PBMC; format: cell-based; settings: for S.I. CQ: I.C.50/E.C.50; for Fen. CQ (fold): ratio to HIV-IIIB; for EC50: Human immunodeficiency virus 1, PBMC, read-out: E.C.50 CQ
Description: as §1, §2, §3, §4, §9, §5, §6, §7, §8

[6] = tested on: HIV-1 clinical isolated, characterised by mutations in the protease gene inducing geno-phenotypic resistance to SQV; assay: p24 production susceptibility test (ACTG protocol), Table 8; format: cell-based; settings: for EC50: Human immunodeficiency virus 1, PBMC, read-out: E.C.50 CQ; for S.I. CQ / Fen. CQ (fold): PBMC; for S.I. CQ: I.C.50/E.C.50; for Fen. CQ (fold): ratio to HIV-IIIB
Description: as §1, §2, §3, §4, §9, §5, §6, §7, §8

[7] = Gen. M4IL E44D D67N M184V R211K T215Y
[8] = Gen. M41L D67N V118I M184V T215Y
[9] = Gen. K65R S68G F77L Y115F Q151M M184V
[10] = Gen. M41L D67N M184V L210W T215Y
[11] = PBMC, Gen. D67N K70R T215F K219Q
[12] = PBMC, Gen. D 67 Ns K 70N T215F K219Q
[13] = PBMC, Gen. M41I M184V L210W R221K T215Y
[14] = PBMC, Gen. M41L D67N K70RM 184V T215F
[15] = PBMC, Gen. M41LD 76N K70R T215Y

Question: For CCN(CC)CCCC(C)Nc1ccnc2cc(Cl)ccc12 (stereo not shown) [CQ, chloroquine], which EC50 [1, 7] is on record?
Answer: 3000 nM

Question: What about the EC50 [1, 8] of the same compound?
Answer: 3500 nM

Question: And the EC50 ([1]; Gen. M184I)?
Answer: 2500 nM

Question: And the EC50 ([1]; Gen. M184V)?
Answer: 3200 nM

Question: What about the “S.I. CQ” value [1, 7] of the same compound?
Answer: 3

Question: What about the “Fen. CQ (fold)” value [1, 7] of the same compound?
Answer: 2.1X fold

Question: And the “S.I. CQ” value [1, 8]?
Answer: 3.4

Question: What about the “Fen. CQ (fold)” value [1, 8] of the same compound?
Answer: 1.9X fold

Question: What about the “S.I. CQ” value ([1]; Gen. M184I) of the same compound?
Answer: 3.6

Question: What about the “Fen. CQ (fold)” value ([1]; Gen. M184I) of the same compound?
Answer: 1.1X fold

Question: And the “S.I. CQ” value ([1]; Gen. M184V)?
Answer: 2.5

Question: And the “Fen. CQ (fold)” value ([1]; Gen. M184V)?
Answer: 1.4X fold

Question: And the EC50 [2]?
Answer: 1500 to 3500 nM

Question: And the EC50 ([3]; Gen. K65R L74V M184V)?
Answer: 1800 nM

Question: And the EC50 [3, 9]?
Answer: 2500 nM

Question: And the EC50 ([3]; Gen. L74V M184F)?
Answer: 1800 nM

Question: What about the EC50 ([3]; Gen. L74V Y115F M184V) of the same compound?
Answer: 2200 nM

Question: And the EC50 [3, 10]?
Answer: 2200 nM

Question: What about the “S.I. CQ” value ([3]; Gen. K65R L74V M184V) of the same compound?
Answer: 5.5

Question: And the “Fen. CQ (fold)” value ([3]; Gen. K65R L74V M184V)?
Answer: 1.2X fold

Question: What about the “S.I. CQ” value [3, 9] of the same compound?
Answer: 3.6

Question: What about the “Fen. CQ (fold)” value [3, 9] of the same compound?
Answer: 1.6X fold

Question: What about the “S.I. CQ” value ([3]; Gen. L74V M184F) of the same compound?
Answer: 5.5

Question: And the “Fen. CQ (fold)” value ([3]; Gen. L74V M184F)?
Answer: 1.2X fold

Question: And the “S.I. CQ” value ([3]; Gen. L74V Y115F M184V)?
Answer: 4

Question: What about the “Fen. CQ (fold)” value ([3]; Gen. L74V Y115F M184V) of the same compound?
Answer: 1.2X fold

Question: What about the “S.I. CQ” value [3, 10] of the same compound?
Answer: 4

Question: And the “Fen. CQ (fold)” value [3, 10]?
Answer: 1.4X fold

Question: And the EC50 ([4]; PBMC, Gen. D67N K70R T215F K219Q, read-out: E.C.50 CQ)?
Answer: 2 µM

Question: What about the EC50 ([4]; PBMC, Gen. D 67 Ns K 70N T215F K219Q, read-out: E.C.50 CQ) of the same compound?
Answer: 3 µM

Question: And the EC50 ([4]; PBMC, Gen. K70R T215F K219Q, read-out: E.C.50 CQ)?
Answer: 1.8 µM

Question: What about the EC50 ([4]; PBMC, Gen. M41I M184V L210W R221K T215Y, read-out: E.C.50 CQ) of the same compound?
Answer: 1.5 µM

Question: And the EC50 ([4]; PBMC, Gen. M41I T215Y, read-out: E.C.50 CQ)?
Answer: 2 µM

Question: And the EC50 ([4]; PBMC, Gen. M41L D67N K70RM 184V T215F, read-out: E.C.50 CQ)?
Answer: 2.5 µM

Question: What about the EC50 ([4]; read-out: E.C.50 CQ (uM), PBMC, Gen. M41LD 76N K70R T215Y) of the same compound?
Answer: 3 µM

Question: What about the “S.I. CQ” value [4, 11] of the same compound?
Answer: 4

Question: And the “CQ (fold)” value [4, 11]?
Answer: 1.1X fold

Question: What about the “S.I. CQ” value [4, 12] of the same compound?
Answer: 3

Question: And the “CQ (fold)” value [4, 12]?
Answer: 2X fold

Question: And the “S.I. CQ” value ([4]; PBMC, Gen. K70R T215F K219Q)?
Answer: 5.5

Question: And the “CQ (fold)” value ([4]; PBMC, Gen. K70R T215F K219Q)?
Answer: 1.1X fold

Question: And the “S.I. CQ” value [4, 13]?
Answer: 6

Question: What about the “CQ (fold)” value [4, 13] of the same compound?
Answer: 0.8X fold

Question: And the “S.I. CQ” value ([4]; PBMC, Gen. M41I T215Y)?
Answer: 4

Question: And the “CQ (fold)” value ([4]; PBMC, Gen. M41I T215Y)?
Answer: 1.1X fold

Question: What about the “S.I. CQ” value [4, 14] of the same compound?
Answer: 3.6

Question: And the “CQ (fold)” value [4, 14]?
Answer: 1.3X fold

Question: And the “S.I. CQ” value [4, 15]?
Answer: 3.2

Question: And the “CQ (fold)” value [4, 15]?
Answer: 1.6X fold

Question: What about the “S.I. CQ” value ([5]; Gen. D30N A71V) of the same compound?
Answer: 5.5

Question: And the “Fen. CQ (fold)” value ([5]; Gen. D30N A71V)?
Answer: 1X fold

Question: What about the “S.I. CQ” value ([5]; Gen. D30N M46V A71V) of the same compound?
Answer: 4

Question: What about the “Fen. CQ (fold)” value ([5]; Gen. D30N M46V A71V) of the same compound?
Answer: 1.2X fold

Question: And the “S.I. CQ” value ([5]; Gen. G48V V92A)?
Answer: 3.2

Question: What about the “Fen. CQ (fold)” value ([5]; Gen. G48V V92A) of the same compound?
Answer: 1.6X fold

Question: What about the “S.I. CQ” value ([5]; Gen. V82F L90M) of the same compound?
Answer: 3.4

Question: And the “Fen. CQ (fold)” value ([5]; Gen. V82F L90M)?
Answer: 1.5X fold

Question: And the EC50 ([5]; Gen. D30N A71V)?
Answer: 1800 nM

Question: And the EC50 ([5]; Gen. D30N M46V A71V)?
Answer: 2200 nM

Question: What about the EC50 ([5]; Gen. G48V V92A) of the same compound?
Answer: 3000 nM

Question: And the EC50 ([5]; Gen. V82F L90M)?
Answer: 2800 nM

Question: And the EC50 ([6]; Gen. G48V I84V A74V L90M)?
Answer: 1800 nM

Question: What about the EC50 ([6]; Gen. G48V V82A) of the same compound?
Answer: 3500 nM

Question: What about the EC50 ([6]; Gen. I84V L90M) of the same compound?
Answer: 2500 nM

Question: What about the EC50 ([6]; Gen. M46I G48V L63P L90M) of the same compound?
Answer: 2000 nM

Question: And the EC50 ([6]; Gen. V82A L90M)?
Answer: 1500 nM

Question: And the “S.I. CQ” value ([6]; Gen. G48V I84V A74V L90M)?
Answer: 5.5

Question: What about the “Fen. CQ (fold)” value ([6]; Gen. G48V I84V A74V L90M) of the same compound?
Answer: 1X fold

Question: And the “S.I. CQ” value ([6]; Gen. G48V V82A)?
Answer: 3.4

Question: What about the “Fen. CQ (fold)” value ([6]; Gen. G48V V82A) of the same compound?
Answer: 1.9X fold

Question: And the “S.I. CQ” value ([6]; Gen. I84V L90M)?
Answer: 3.6

Question: What about the “Fen. CQ (fold)” value ([6]; Gen. I84V L90M) of the same compound?
Answer: 1.3X fold

Question: What about the “S.I. CQ” value ([6]; Gen. M46I G48V L63P L90M) of the same compound?
Answer: 6.7

Question: What about the “Fen. CQ (fold)” value ([6]; Gen. M46I G48V L63P L90M) of the same compound?
Answer: 1.1X fold

Question: What about the “S.I. CQ” value ([6]; Gen. V82A L90M) of the same compound?
Answer: 6

Question: And the “Fen. CQ (fold)” value ([6]; Gen. V82A L90M)?
Answer: 0.8X fold
